Test results reported in publication PMC12133982, “Predominant T-cell epitopes of SARS-CoV-2 restricted by multiple prevalent HLA-B and HLA-C allotypes in Northeast Asia” (Frontiers in Immunology, 2025).
Like-named read-outs stand apart in the source and are kept apart here. Peptide text beside a SMILES is read from it.

Tests used:
HLA-C0302 = HLA-C0302 (Homo sapiens, UniProt P10321, A176E/A330V/A97T/C25G/C350S/D114A/D33Y/E197K/L127V/L171W/L218V/M285V/M309V/M331V/P208H/Q277E/Q291P/R243W/R45H/S123Y/S297R/S48A/T118I/T187L/T329A/T363A/V319A); experiment: Competitive peptide binding assay, CIR-C0302; details: HMy2.CIR-C0302 cells, reference Cy5-[…], class from inhibition at 5 and 15 μM, flow cytometry MFI; read-out: Binding affinity with HLA-C0302
Experimental: (§1) Then, competitive peptide binding assays were performed.

HLA-C1402 = HLA-C1402 (Homo sapiens, UniProt P10321, A176E/A330V/A35S/A97T/C350S/D114A/D33S/L171W/L180R/L218V/M285V/M309V/M331V/P208H/Q277E/Q291P/R121W/R243W/S123F/S297R/S48A/T329A/T363A/V319A); experiment: Competitive peptide binding assay, CIR-C1402; details: HMy2.CIR-C1402 cells, reference Cy5-[…], class from inhibition at 5 and 15 μM, flow cytometry MFI; read-out: Binding affinity with HLA-C1402
Experimental: as §1

HLA-C0401 = HLA-C0401 (Homo sapiens, UniProt P10321, A176E/A330V/A35S/A73E/C25G/C350S/D138N/D33S/E299K/L171W/L180R/L218V/M285V/M309V/M331V/N104K/P208H/Q277E/Q291P/R243W/R38W/S101N/S123F/S140F/S297R/S48A/T329A/T363A/V319A/V327M); experiment: Competitive peptide binding assay, CIR-C0401; details: HMy2.CIR-C0401 cells, reference Cy5-[…], class from inhibition at 5 and 15 μM, flow cytometry MFI; read-out: Binding affinity with HLA-C0401
Experimental: as §1

HLA-C0102 = HLA-C0102 (Homo sapiens, UniProt P10321, A176E/A330V/A35S/A97T/C350S/D114A/D33F/L171W/L180R/L218V/M285V/M309V/M331V/P208H/Q277E/Q291P/R121W/R243W/R30K/S123C/S140Y/S297R/T329A/T363A/V272M/V319A); experiment: Competitive peptide binding assay, CIR-C0102; details: for inhibition at 15 µM / inhibition at 5 µM: read-out: Inhibition % of Cy5-reference peptide binding
Experimental: as §1

HLA-C0602 = HLA-C0602 (Homo sapiens, UniProt P10321, A176E/A330V/C350S/L171W/L180W/L218V/M285V/M309V/M331V/N104K/P208H/Q277E/Q291P/R121W/S101N/S123Y/S297R/T329A/T363A/V319A/V328M); experiment: Competitive peptide binding assay, CIR-C0602
HLA-C0702 = HLA-C0702 (Homo sapiens, UniProt P10321); experiment: Competitive peptide binding assay, CIR-C0702
HLA-C0304 = HLA-C0304 (Homo sapiens, UniProt P10321, A176E/A330V/A97T/C25G/C350S/D114A/D33Y/E197K/L119I/L127V/L171W/L218V/M285V/M309V/M331V/P208H/Q277E/Q291P/R243W/R45H/S123Y/S140Y/S297R/S48A/T118I/T187L/T329A/T363A/V319A); experiment: Competitive peptide binding assay, CIR-C0304; details: HMy2.CIR-C0304 cells, reference Cy5-[…], class from inhibition at 5 and 15 μM, flow cytometry MFI; read-out: Binding affinity with HLA-C0304
Experimental: as §1

HLA-C0303 = HLA-C0303 (Homo sapiens, UniProt P10321, A176E/A330V/A97T/C25G/C350S/D114A/D33Y/E197K/G115R/L119I/L127V/L171W/L218V/M285V/M309V/M331V/P208H/Q277E/Q291P/R243W/R45H/S123Y/S140Y/S297R/S48A/T118I/T187L/T329A/T363A/V319A); experiment: Competitive peptide binding assay, CIR-C0303; details: HMy2.CIR-C0303 cells, reference Cy5-[…], class from inhibition at 5 and 15 μM, flow cytometry MFI; read-out: Binding affinity with HLA-C0303
Experimental: as §1

HLA-C0801 = HLA-C0801 (Homo sapiens, UniProt P10321, A176T/A330V/A97T/C350S/D114A/D138N/D33Y/E201K/E299G/L171W/L218V/M285V/M309V/M331V/P208H/Q277E/Q291P/R59Q/S123Y/S140F/S297R/S48A/T329A/T363A/V319A/V328M); experiment: Competitive peptide binding assay, CIR-C0801; details: HMy2.CIR-C0801 cells, reference Cy5-[…], class from inhibition at 5 and 15 μM, flow cytometry MFI; read-out: Binding affinity with HLA-C0801
Experimental: as §1

[1] = HMy2.CIR-C0102 cells, reference Cy5-[…], class from inhibition at 5 and 15 μM, flow cytometry MFI, read-out: Binding affinity with HLA-C0102

CC[C@H](C)[C@H](N)C(=O)N[C@H](C(=O)N[C@@H](CC(N)=O)C(=O)N[C@@H](CO)C(=O)N[C@H](C(=O)N[C@@H](CC(C)C)C(=O)N[C@@H](CC(C)C)C(=O)N[C@@H](Cc1ccccc1)C(=O)N[C@@H](CC(C)C)C(=O)O)C(C)C)C(C)C [Epitope M7] (H-IVNSVLLFL-OH; N-terminus and C-terminus assumed)
IC50 (HLA-C0302): > 15 µM | IC50 (HLA-C1402): > 15 µM | IC50 (HLA-C0401): 5 to 15 µM | IC50 (HLA-C0102; [1]): < 5 µM | IC50 (HLA-C0602): 5 to 15 µM | IC50 (HLA-C0702): > 15 µM | IC50 (HLA-C0304): > 15 µM

CC(C)C[C@H](NC(=O)[C@@H](NC(=O)[C@@H](NC(=O)CNC(=O)[C@H](CCC(N)=O)NC(=O)[C@@H]1CCCN1C(=O)[C@H](CC(C)C)NC(=O)[C@H](CCC(N)=O)NC(=O)[C@@H](N)CC(C)C)[C@@H](C)O)[C@@H](C)O)C(=O)O [Epitope M13] (H-LQLPQGTTL-OH; N-terminus and C-terminus assumed)
IC50 (HLA-C1402): > 15 µM | IC50 (HLA-C0401): 5 to 15 µM | IC50 (HLA-C0702): 5 to 15 µM | IC50 (HLA-C0304): < 5 µM

CSCC[C@H](NC(=O)[C@H](CO)NC(=O)[C@H](CCC(N)=O)NC(=O)[C@H](CCC(N)=O)NC(=O)[C@H](CC(C)C)NC(=O)[C@H](CCC(N)=O)NC(=O)[C@H](CCCCN)NC(=O)[C@H](CO)NC(=O)[C@@H](N)Cc1ccccc1)C(=O)O [Epitope M14] (H-FSKQLQQSM-OH; N-terminus and C-terminus assumed)
IC50 (HLA-C0302): < 5 µM | IC50 (HLA-C0303): < 5 µM | IC50 (HLA-C0801): > 15 µM | IC50 (HLA-C0102; [1]): > 15 µM | IC50 (HLA-C0702): 5 to 15 µM | IC50 (HLA-C0304): 5 to 15 µM

CC[C@H](C)[C@H](NC(=O)[C@@H](NC(=O)[C@H](CC(N)=O)NC(=O)[C@H](CCCNC(=N)N)NC(=O)[C@H](CCCCN)NC(=O)[C@@H](NC(=O)[C@H](Cc1ccc(O)cc1)NC(=O)[C@H](C)NC(=O)[C@@H](N)Cc1ccccc1)[C@@H](C)O)C(C)C)C(=O)O [Epitope M23] (H-FAYTKRNVI-OH; N-terminus and C-terminus assumed)
IC50 (HLA-C0303): < 5 µM | IC50 (HLA-C0801): > 15 µM | IC50 (HLA-C0401): > 15 µM | IC50 (HLA-C0102; [1]): 5 to 15 µM | inhibition at 15 µM (HLA-C0102): 78.9%

CC(C)C[C@H](NC(=O)[C@H](CC(C)C)NC(=O)[C@H](Cc1ccccc1)NC(=O)[C@@H](NC(=O)[C@H](CCCNC(=N)N)NC(=O)[C@@H]1CCCN1C(=O)[C@H](CCC(N)=O)NC(=O)[C@H](CC(C)C)NC(=O)[C@@H](N)Cc1ccc(O)cc1)[C@@H](C)O)C(=O)O [Epitope M35] (H-YLQPRTFLL-OH; N-terminus and C-terminus assumed)
IC50 (HLA-C0302): > 15 µM | IC50 (HLA-C1402): 5 to 15 µM | IC50 (HLA-C0102; [1]): > 15 µM | IC50 (HLA-C0702): < 5 µM | IC50 (HLA-C0304): > 15 µM

CC[C@H](C)[C@H](N)C(=O)N[C@@H](C)C(=O)N[C@@H](CC(N)=O)C(=O)N[C@@H](CCC(N)=O)C(=O)N[C@@H](Cc1ccccc1)C(=O)N[C@@H](CC(N)=O)C(=O)N[C@@H](CO)C(=O)N[C@@H](C)C(=O)N[C@H](C(=O)O)[C@@H](C)CC [Epitope M37] (H-IANQFNSAI-OH; N-terminus and C-terminus assumed)
IC50 (HLA-C0303): < 5 µM | IC50 (HLA-C0801): > 15 µM | IC50 (HLA-C0401): > 15 µM | IC50 (HLA-C0102; [1]): < 5 µM | inhibition at 5 µM (HLA-C0102): 68.9% | inhibition at 15 µM (HLA-C0102): 86.1% | IC50 (HLA-C0602): > 15 µM

CSCC[C@H](NC(=O)[C@H](C)NC(=O)[C@@H]1CCCN1C(=O)[C@H](CC(=O)O)NC(=O)[C@H](C)NC(=O)[C@H](C)NC(=O)[C@H](Cc1ccc(O)cc1)NC(=O)[C@@H](NC(=O)[C@@H](N)CC(C)C)C(C)C)C(=O)O [Epitope M58] (H-LVYAADPAM-OH; N-terminus and C-terminus assumed)
IC50 (HLA-C0302): < 5 µM | IC50 (HLA-C0303): 5 to 15 µM | IC50 (HLA-C0801): > 15 µM | IC50 (HLA-C0401): > 15 µM | IC50 (HLA-C0102; [1]): > 15 µM | IC50 (HLA-C0702): > 15 µM

CSCC[C@H](NC(=O)[C@H](C)NC(=O)[C@@H](N)Cc1ccccc1)C(=O)N[C@@H](CCC(N)=O)C(=O)N[C@@H](CCSC)C(=O)N[C@@H](C)C(=O)N[C@@H](Cc1ccc(O)cc1)C(=O)N[C@@H](CCCNC(=N)N)C(=O)N[C@@H](Cc1ccccc1)C(=O)O [Epitope M63]
IC50 (HLA-C0302): < 5 µM | IC50 (HLA-C0303): 5 to 15 µM | IC50 (HLA-C0801): > 15 µM | IC50 (HLA-C0401): > 15 µM | IC50 (HLA-C0102; [1]): > 15 µM | IC50 (HLA-C0602): > 15 µM | IC50 (HLA-C0702): > 15 µM

CC(C)[C@H](NC(=O)CNC(=O)[C@H](Cc1c[nH]cn1)NC(=O)[C@@H]1CCCN1C(=O)[C@H](C)NC(=O)[C@H](CO)NC(=O)[C@@H](N)CCC(N)=O)C(=O)N[C@H](C(=O)N[C@@H](Cc1ccccc1)C(=O)O)C(C)C [Epitope M69] (H-QSAPHGVVF-OH; N-terminus and C-terminus assumed)
IC50 (HLA-C1402): > 15 µM | IC50 (HLA-C0801): > 15 µM | IC50 (HLA-C0401): > 15 µM | IC50 (HLA-C0102; [1]): > 15 µM | IC50 (HLA-C0602): > 15 µM

CC(C)C[C@H](NC(=O)[C@H](CC(C)C)NC(=O)[C@H](Cc1ccccc1)NC(=O)[C@@H](NC(=O)[C@@H](NC(=O)[C@H](Cc1ccccc1)NC(=O)[C@H](C)NC(=O)[C@H](CC(C)C)NC(=O)[C@@H](N)Cc1ccccc1)C(C)C)C(C)C)C(=O)O [Epitope M76] (H-FLAFVVFLL-OH; N-terminus and C-terminus assumed)
IC50 (HLA-C0302): 5 to 15 µM | IC50 (HLA-C1402): > 15 µM | IC50 (HLA-C0702): 5 to 15 µM | IC50 (HLA-C0304): < 5 µM

CC(C)[C@H](NC(=O)[C@@H](NC(=O)[C@H](Cc1ccccc1)NC(=O)[C@@H]1CCCN1C(=O)[C@@H](NC(=O)CNC(=O)[C@H](CC(=O)O)NC(=O)[C@@H](NC(=O)[C@@H](N)Cc1ccccc1)C(C)C)C(C)C)C(C)C)C(=O)O [Epitope M96] (H-FVDGVPFVV-OH; N-terminus and C-terminus assumed)
IC50 (HLA-C1402): 5 to 15 µM | IC50 (HLA-C0303): > 15 µM | IC50 (HLA-C0801): < 5 µM | IC50 (HLA-C0102): > 15 µM | inhibition at 5 µM (HLA-C0102): 3.72% | inhibition at 15 µM (HLA-C0102): 20.7% | IC50 (HLA-C0702): > 15 µM

CC[C@H](C)[C@H](NC(=O)[C@H](Cc1ccccc1)NC(=O)[C@@H](N)Cc1ccc(O)cc1)C(=O)N[C@@H](C)C(=O)N[C@@H](CO)C(=O)N[C@@H](Cc1ccccc1)C(=O)N[C@@H](CCCNC(=N)N)C(=O)N[C@@H](CC(C)C)C(=O)N[C@@H](Cc1ccccc1)C(=O)O [Epitope M107] (H-YFIASFRLF-OH; N-terminus and C-terminus assumed)
IC50 (HLA-C1402): < 5 µM | IC50 (HLA-C0303): 5 to 15 µM | IC50 (HLA-C0801): > 15 µM | IC50 (HLA-C0602): > 15 µM | IC50 (HLA-C0702): > 15 µM
